pIC50: −log10 of the molar value. Structures can show the parent of a compound that is named as a salt.
Legend:
[1] = target: BCRP (Homo sapiens (Human), UniProt Q9UNQ0); assay: BCRP MDCKII permeability assay: efflux ratio; type: in vitro ADME; details: dog
Method: BCRP transfected MDCKII cells were cultured and plated according to manufacturer's recommendations. Assay conditions included with and without the BCRP-specific inhibitor, KO143, at a concentration of 0.3 μM to ascertain the contribution of BCRP to the efflux value of the test compound.
Both positive and negative controls were used to assess functionality of P-gp or BCRP efflux in the assays. […] Final organic concentration in the assay was 1%. All dosing solutions contained 10 μM lucifer yellow to monitor LLC-PK1 or MDCKII cell monolayer integrity.
For the apical to basolateral determination (A to B), 75 μL of the test article in transport buffer were added to the apical side of the individual transwells and 250 μL of basolateral media, without compound or lucifer yellow, were added to each well. For the basolateral to apical determination (B to A), 250 μL of test article in transport buffer were added to each well and 75 μL transport buffer, without compound or lucifer yellow, were added to each transwell. All tests were performed in triplicate, and each compound was tested for both apical to basolateral and basolateral to apical transport. The plates were incubated for 2 hours on a Lab-Line Instruments Titer Orbital Shaker (VWR, West Chester, PA) at 50 rpm and 37° C. with 5% CO2. All culture plates were removed from the incubator and 50 μL of media were removed from the apical and basolateral portion of each well and added to 150 μL of 1 μM labetalol in 2:1 acetonitrile (acetonitrile): H2O, v/v.
These values were accepted when found to be below 2% for apical to basolateral and 5% basolateral to apical flux across the MDR1-transfected LLC-PK1 or BCRP-transfected MDCKII cell monolayers. The plates were sealed and the contents of each well analyzed by LC-MS/MS. The compound concentrations were determined from the ratio of the peak areas of the compound to the internal standard (labetalol) in comparison to the dosing solution.
The LC-MS/MS system was comprised of an HTS-PAL autosampler (Leap Technologies, Carrboro, NC), an HP1200 HPLC (Agilent, Palo Alto, CA), and a MDS Sciex 4000 Q Trap system (Applied Biosystems, Foster City, CA). […] The total run time, including re-equilibration, for a single injection was 1.2 minutes. Mass spectrometric detection of the analytes was accomplished using the ion spray positive mode.
An efflux ratio is calculated from the mean apical to basolateral (A-B) Papp data and basolateral to apical (B-A) Papp data using the following equation: Efflux ratio=Papp(B-A)/Papp(A-B)

[2] = tested on: A375 cells; assay: Cellular phospho-ERK inhibition assay in A375 cells; type: cell-based; details: Homo sapiens, A-375, A375 cells (head prints A357), 2 hours treatment, read-out: A357 cell IC50
Method: A375 and H1755 cells were obtained from the American Type Culture Collection (ATCC, Rockville, MD). A375 cells were maintained in DMEM growth medium containing 10% FBS. H1755 cells were maintained in RPMI growth medium containing 10% FBS.
Cells were harvested according to standard protocols, counted and plated onto flat-bottom, 96-well tissue culture plates (Costar #3599) at 2.5×10^4 cells/well for A375 cells and 1.5×10^4 cells/well for H1755 cells in 100 μL/well of growth medium containing 10% FBS. After an overnight incubation at 37° C. with 5% CO2 cells were treated for 2 hours at 37° C., 5% CO2 with compounds prepared as a 9-point, 1:3.33 fold dilution series with final compound concentrations ranging from 66 pM-10 μM and a constant DMSO concentration of 0.25%. Control wells contained either 0.25% DMSO alone (uninhibited control) or 10 μM binimetinib (complete inhibition control). The levels of phosphorylated ERK are determined using an In Cell Western protocol: following compound incubation, growth medium was discarded, and cells were fixed with 0.4% formaldehyde in PBS for 20 minutes at room temperature. Cells were permeabilized with 100% methanol for 10 minutes at room temperature. Plates were washed with PBS containing 0.05% Tween-20 and blocked for 1 hour at room temperature with LI-COR Blocking Buffer (LI-COR Biosciences; Cat #927-40000). Plates were then incubated for 2 hours at room temperature with 50 μL of a 1:400 dilution of anti-phospho-ERK1/2 (Thr202/Tyr204) (Cell Signaling; Cat #9101) and a 1:1000 dilution of anti-GAPDH (Millipore; Cat #MAB374) in LI-COR blocking buffer containing 0.05% Tween-20. Plates were washed with PBS containing […] Tween-20 then incubated at room temperature for 1 hour with 50 μL of a 1:1000 dilution of anti-rabbit AlexaFluor 680 (Life Technologies; Cat #A21109) and a 1:1000 dilution of anti-mouse IRDye 800CW (LI-COR; Cat #926-32210) in LI-COR blocking buffer containing 0.05% Tween-20. Plates were analyzed by reading on an Odyssey CLx infrared scanner. For each well, the phospho-ERK signal was normalized to the GAPDH signal and converted to POC using the following equation:
[formula] • Where: • Xmax Average Uninhibited Controls • Xmin Average Complete Inhibition Controls IC50 values were then calculated using a 4-parameter fit in XLfit software and are provided in Table A1.

[3] = target: full-length FLAG-tagged B-Raf(V600E) (Homo sapiens (Human), UniProt P15056, V600E); assay: BRAF V600E enzyme assay (TR-FRET competitive displacement); type: binding; details: averaged IC50; TR-FRET tracer displacement, 60 min
Sequence of full-length FLAG-tagged B-Raf(V600E) (P15056 whole entry V600E): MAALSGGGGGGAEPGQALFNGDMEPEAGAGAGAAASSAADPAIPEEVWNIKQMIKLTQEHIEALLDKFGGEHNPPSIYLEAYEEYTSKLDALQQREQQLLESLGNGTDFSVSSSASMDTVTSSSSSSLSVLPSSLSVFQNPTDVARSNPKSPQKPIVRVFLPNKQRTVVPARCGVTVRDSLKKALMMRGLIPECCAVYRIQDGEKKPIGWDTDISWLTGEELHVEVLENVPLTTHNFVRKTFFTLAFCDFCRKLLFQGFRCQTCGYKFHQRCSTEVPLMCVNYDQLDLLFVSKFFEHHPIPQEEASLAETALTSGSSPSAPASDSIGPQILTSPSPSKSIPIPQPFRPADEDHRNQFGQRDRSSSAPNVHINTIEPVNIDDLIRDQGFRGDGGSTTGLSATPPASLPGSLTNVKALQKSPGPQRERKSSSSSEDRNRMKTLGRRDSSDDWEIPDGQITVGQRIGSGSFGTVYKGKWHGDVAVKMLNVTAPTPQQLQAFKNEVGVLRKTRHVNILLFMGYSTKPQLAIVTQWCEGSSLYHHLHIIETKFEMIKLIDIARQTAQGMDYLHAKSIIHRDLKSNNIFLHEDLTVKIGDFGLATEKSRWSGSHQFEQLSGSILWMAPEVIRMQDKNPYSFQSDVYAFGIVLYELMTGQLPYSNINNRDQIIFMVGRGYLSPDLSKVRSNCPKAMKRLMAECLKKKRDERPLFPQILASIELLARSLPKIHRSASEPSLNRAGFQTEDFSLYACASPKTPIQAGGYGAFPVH
Method: A competitive displacement assay was configured for B-Raf that monitors the amount of a fluorescently-tagged “tracer” bound to B-Raf via TR-FRET from an anti-tag Eu-labeled antibody also bound to B-Raf. For full-length FLAG-tagged B-Raf(V600E), the assay mixtures consisted of 25 mM K^+HEPES, pH 7.4, 10 mM MgCl2, 0.01% Triton X-100, 1 mM DTT, 2% DMSO (from compound), 50 nM Tracer 1710 (ThermoFisher, PR9176A), 0.5 nM Eu anti-FLAG (M2)-cryptate Ab (Cisbio, 61FG2KLB) and 5 nM full-length, N-terminally FLAG-tagged B-Raf(V600E) (Origene Technologies, TP700031. Compounds were typically diluted in DMSO across an 11-point dosing range created using a 3-fold serial dilution protocol at a top dose of 10 μM. The assay was run in 384-well, polystyrene, low-volume, non-treated, white microtiter plates (Costar 4512) in a final volume of 12 μL. Low control wells included 1 μM of a potent B-Raf inhibitor as a control. The assays were incubated at ambient temperature (typically 22° C.) for 60 min and then read on a PerkinElmer EnVision microplate reader using standard TRF settings (λEx=320 nm, λEm=615 & 665 nm). The ratioed counts (665 nm/615 nm) were converted to percent of control (POC) using the following equation:
[formula] • where: • Xmax Average Uninhibited Controls • Xmin Average Background
A 4-parameter logistic model was the fit to the POC data for each compound. From that fit, the IC50 was estimated and is defined as the concentration of compound at which the best-fit curve crosses 50 POC.

[4] = MDR1 LLC-PK1 and BCRP MDCKII permeability assay: permeability coefficient (Papp); type: in vitro ADME
Excerpt: (§1) Final organic concentration in the assay was 1%.

[5] = target: P-gp (MDR1) (Homo sapiens (Human), UniProt P08183); assay: MDR1 LLC-PK1 permeability assay: efflux ratio; type: in vitro ADME; details: pig
Sequence of P-gp (MDR1) (P08183 whole entry, species assumed): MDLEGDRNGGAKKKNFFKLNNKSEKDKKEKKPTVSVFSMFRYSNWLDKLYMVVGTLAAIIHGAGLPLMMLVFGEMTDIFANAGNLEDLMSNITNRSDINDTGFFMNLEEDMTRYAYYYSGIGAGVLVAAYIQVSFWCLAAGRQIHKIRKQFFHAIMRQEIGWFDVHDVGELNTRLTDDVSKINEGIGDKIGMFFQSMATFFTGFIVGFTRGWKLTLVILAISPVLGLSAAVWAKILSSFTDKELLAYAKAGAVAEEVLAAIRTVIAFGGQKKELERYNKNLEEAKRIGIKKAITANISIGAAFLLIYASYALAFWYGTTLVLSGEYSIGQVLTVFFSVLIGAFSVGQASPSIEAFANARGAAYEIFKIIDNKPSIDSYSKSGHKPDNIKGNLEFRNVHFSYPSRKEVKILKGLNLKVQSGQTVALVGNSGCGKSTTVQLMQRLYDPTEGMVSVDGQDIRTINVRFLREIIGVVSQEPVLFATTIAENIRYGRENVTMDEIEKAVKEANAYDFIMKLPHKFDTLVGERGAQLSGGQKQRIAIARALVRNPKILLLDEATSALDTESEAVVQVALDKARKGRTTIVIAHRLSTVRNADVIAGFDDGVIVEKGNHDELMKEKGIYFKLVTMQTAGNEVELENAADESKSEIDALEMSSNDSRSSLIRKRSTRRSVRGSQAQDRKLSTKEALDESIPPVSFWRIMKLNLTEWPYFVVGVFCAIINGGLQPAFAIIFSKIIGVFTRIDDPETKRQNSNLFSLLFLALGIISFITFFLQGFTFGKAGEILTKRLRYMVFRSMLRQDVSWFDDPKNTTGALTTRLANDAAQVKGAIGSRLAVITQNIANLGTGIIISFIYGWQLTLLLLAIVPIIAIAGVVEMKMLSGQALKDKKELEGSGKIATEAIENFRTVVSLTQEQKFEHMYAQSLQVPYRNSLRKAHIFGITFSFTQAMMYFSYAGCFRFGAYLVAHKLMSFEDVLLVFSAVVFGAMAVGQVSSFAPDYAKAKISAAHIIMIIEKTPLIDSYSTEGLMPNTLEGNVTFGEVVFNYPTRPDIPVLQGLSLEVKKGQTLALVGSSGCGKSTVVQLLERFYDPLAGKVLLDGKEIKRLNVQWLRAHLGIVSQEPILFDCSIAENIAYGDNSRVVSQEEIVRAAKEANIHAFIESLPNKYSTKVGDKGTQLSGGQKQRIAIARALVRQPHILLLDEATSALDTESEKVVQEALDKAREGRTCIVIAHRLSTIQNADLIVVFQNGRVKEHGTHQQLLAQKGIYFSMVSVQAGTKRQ
Excerpt: as §1

Sequence of BCRP (Q9UNQ0 whole entry): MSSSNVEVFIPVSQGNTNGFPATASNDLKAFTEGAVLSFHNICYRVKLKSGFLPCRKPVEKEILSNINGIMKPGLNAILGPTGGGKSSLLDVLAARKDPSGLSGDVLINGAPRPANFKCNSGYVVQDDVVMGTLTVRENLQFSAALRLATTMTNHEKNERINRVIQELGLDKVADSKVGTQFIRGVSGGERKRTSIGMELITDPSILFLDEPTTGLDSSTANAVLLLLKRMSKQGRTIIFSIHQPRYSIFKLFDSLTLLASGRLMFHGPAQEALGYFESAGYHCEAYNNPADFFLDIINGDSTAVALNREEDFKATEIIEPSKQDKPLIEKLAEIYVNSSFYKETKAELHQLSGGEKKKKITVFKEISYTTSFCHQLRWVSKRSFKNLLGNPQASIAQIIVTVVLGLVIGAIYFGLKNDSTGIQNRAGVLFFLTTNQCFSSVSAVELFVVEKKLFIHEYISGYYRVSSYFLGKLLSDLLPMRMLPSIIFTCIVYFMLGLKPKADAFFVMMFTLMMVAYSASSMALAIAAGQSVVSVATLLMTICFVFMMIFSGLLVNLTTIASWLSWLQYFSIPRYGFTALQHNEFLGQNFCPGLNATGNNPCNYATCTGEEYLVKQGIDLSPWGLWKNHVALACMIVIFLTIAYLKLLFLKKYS

Compound | efflux ratio at 2 h, 1 µM [1] | pIC50 [2] | pIC50 [3] | Papp at 2 h, 1 µM [4] [×10⁻⁶ cm/s] | efflux ratio at 2 h, 1 µM [5]
Cc1c(Nc2c(F)ccc(NS(=O)(=O)N3C[C@H](F)[C@@H](F)C3)c2Cl)ccc2ncn(C)c(=O)c12 (relative stereo) [Example 85, (trans)-N-(2-chloro-3-((3,5-dimethyl-4-oxo-3,4-dihydroquinazolin-6-yl)amino)-4-fluorophenyl)-3,4-difluoropyrrolidine-1-sulfonamide] | 0.9 | 6.75 | 7.28 | 26 | 1.7
Cc1c(Nc2c(F)ccc(NS(=O)(=O)N3CCC4(CC4)C3)c2Cl)ccc2ncn(C)c(=O)c12 [Example 82, N-(2-chloro-3-((3,5-dimethyl-4-oxo-3,4-dihydroquinazolin-6-yl)amino)-4-fluorophenyl)-5-azaspiro[2.4]heptane-5-sulfonamide trifluoroacetate] | 1 | 6.71 | 7.16 | 13 | 1.2
Cc1c(Nc2c(F)ccc(NS(=O)(=O)N3CCCCC3)c2Cl)ccc2ncn(C)c(=O)c12 [Example 84, N-(2-chloro-3-((3,5-dimethyl-4-oxo-3,4-dihydroquinazolin-6-yl)amino)-4-fluorophenyl)piperidine-1-sulfonamide] | 0.8 | 6.88 | 7.28 | 18 | 0.8
Cc1c(Nc2c(F)c(F)cc(NS(=O)(=O)N(C)C)c2Cl)ccc2ncn(C)c(=O)c12 [Example 98, N-(2-chloro-3-((3,5-dimethyl-4-oxo-3,4-dihydroquinazolin-6-yl)amino)-4,5-difluorophenyl)-(N,N-dimethyl)-sulfamide] | 1.1 | 7.31 | 7.70 | 31 | 1.1
COCC1CN(S(=O)(=O)Nc2ccc(F)c(Oc3ccc4ncn(C)c(=O)c4c3C)c2Cl)C1 [Example 115, N-(2-chloro-3-((3,5-dimethyl-4-oxo-3,4-dihydroquinazolin-6-yl)oxy)-4-fluorophenyl)-3-(methoxymethyl)azetidine-1-sulfonamide] | 1.5 | 7.68 | 8.00 | 28 | 1.6
Cc1c(Oc2c(F)ccc(NS(=O)(=O)N3CC(F)C3)c2Cl)ccc2ncn(C)c(=O)c12 [Example 116, N-(2-chloro-3-((3,5-dimethyl-4-oxo-3,4-dihydroquinazolin-6-yl)oxy)-4-fluorophenyl)-3-fluoroazetidine-1-sulfonamide] | 2.1 | 7.82 | 8.40 | 34 | 2.7
COC1CN(S(=O)(=O)Nc2ccc(F)c(Oc3ccc4ncn(C)c(=O)c4c3C)c2Cl)C1 [Example 117, N-(2-chloro-3-((3,5-dimethyl-4-oxo-3,4-dihydroquinazolin-6-yl)oxy)-4-fluorophenyl)-3-methoxyazetidine-1-sulfonamide] | 1.5 | 7.64 | 7.96 | 30 | 1.5
CCOC1CN(S(=O)(=O)Nc2ccc(F)c(Nc3ccc4ncn(C)c(=O)c4c3Cl)c2Cl)C1 [Example 141, N-(2-chloro-3-((5-chloro-3-methyl-4-oxo-3,4-dihydroquinazolin-6-yl)amino)-4-fluorophenyl)-3-ethoxyazetidine-1-sulfonamide] | 2.2 | 7.64 | 7.70 | 29 | 1.7

Further compounds by rising pIC50 [2], results first:

efflux ratio at 2 h, 1 µM [1] | pIC50 [2] | pIC50 [3] | Papp at 2 h, 1 µM [4] [×10⁻⁶ cm/s] | efflux ratio at 2 h, 1 µM [5] | Compound
0.6 | 6.69 | 7.57 | 25 | 1.2 | Cc1c(Nc2c(F)ccc(NS(=O)(=O)N3CC4CC4(C)C3)c2Cl)ccc2ncn(C)c(=O)c12 (centres unmarked) [Example 88]
1 | 6.86 | 6.95 | 28 | 1.3 | Cc1c(Nc2c(F)ccc(NS(=O)(=O)N3CCOCC3)c2Cl)ccc2ncn(C)c(=O)c12 [Example 79, N-(2-chloro-3-((3,5-dimethyl-4-oxo-3,4-dihydroquinazolin-6-yl)amino)-4-fluorophenyl)morpholine-4-sulfonamide]
0.8 | 6.91 | 8.05 | 17 | 1.5 | Cc1c(Oc2c(F)ccc(NS(=O)(=O)N3CC4CC4C3)c2Cl)ccc2ncn(C)c(=O)c12 (centres unmarked) [Example 91]
0.8 | 7.28 | 7.80 | 48 | 1.2 | COCC1(C)CN(S(=O)(=O)Nc2ccc(F)c(Nc3ccc4ncn(C)c(=O)c4c3C)c2Cl)C1 [Example 140, N-(2-chloro-3-((3,5-dimethyl-4-oxo-3,4-dihydroquinazolin-6-yl)amino)-4-fluorophenyl)-3-(methoxymethyl)-3-methylazetidine-1-sulfonamide trifluoroacetate]
1.5 | 7.43 | 8.10 | 36 | 2 | Cc1c(Nc2c(F)ccc(NS(=O)(=O)N3CC(COC(F)F)C3)c2Cl)ccc2ncn(C)c(=O)c12 [Example 137, N-(2-chloro-3-((3,5-dimethyl-4-oxo-3,4-dihydroquinazolin-6-yl)amino)-4-fluorophenyl)-3-((difluoromethoxy)methyl)azetidine-1-sulfonamide trifluoroacetate]
2.5 | 7.70 | 7.62 | 21 | 3.2 | CCOC1CN(S(=O)(=O)Nc2ccc(F)c(Nc3ccc4ncn(C)c(=O)c4c3F)c2Cl)C1 [Example 142, N-(2-chloro-4-fluoro-3-((5-fluoro-3-methyl-4-oxo-3,4-dihydroquinazolin-6-yl)amino)phenyl)-3-ethoxyazetidine-1-sulfonamide]
5.4 | 8.30 | 8.40 | 32 | 2.5 | COC1CN(S(=O)(=O)Nc2ccc(F)c(Oc3ccc4ncn(C)c(=O)c4c3F)c2Cl)C1 [Example 123, N-(2-chloro-4-fluoro-3-((5-fluoro-3-methyl-4-oxo-3,4-dihydroquinazolin-6-yl)oxy)phenyl)-3-methoxyazetidine-1-sulfonamide]
7.8 | 8.52 | 8.70 | 31 | 2.3 | Cn1cnc2ccc(Oc3c(F)ccc(NS(=O)(=O)N4CC(F)C4)c3Cl)c(F)c2c1=O [Example 122, N-(2-chloro-4-fluoro-3-((5-fluoro-3-methyl-4-oxo-3,4-dihydroquinazolin-6-yl)oxy)phenyl)-3-fluoroazetidine-1-sulfonamide]
